# Measured values published in paper PMC4757070, “Involvement of a Novel Class C Beta-Lactamase in the Transglutaminase Mediated Cross-Linking Cascade of Streptomyces mobaraensis DSM 40847” (PLoS ONE, 2016).
# Read-outs that look alike come from different tables or passages of the source.
# Key:
# [1] = target: T1, beta-lactamase Sml-1 (rSml-1); assay: inhibition of nitrocefin hydrolysis at […] nm; Ki from IC50 ([…]) by Cheng-Prusoff; format: biochemical
# T1 construct: recombinant Sml-1 produced in E. coli BL21(DE3) RIL with pelB leader and C-terminal Gly-Leu-Glu-(His)6
# [2] = target: T1, beta-lactamase Sml-1 (rSml-1); assay: as above; format: biochemical, Streptomyces mobaraensis
SMILES,Ki [1],Ki [2]
CC1(C)S[C@@H]2[C@H](NC(=O)[C@H](N)c3ccccc3)C(=O)N2[C@H]1C(=O)O [ampicillin],180 µM,
CC1(C)S[C@@H]2[C@H](NC(=O)Cc3ccccc3)C(=O)N2[C@H]1C(=O)O [penicillin G],,100 µM
